Earlier results on three compounds are cited in patent US20070160663A1, “Single unit pharmaceutical composition comprising a mixture of fenofibrate and a modified release form of a homocysteine reducing agent” (GALEPHAR PHARMACEUTICAL RESEARCH, INC., priority 2003, published 2007).

In the case of `CC(C)OC(=O)C(C)(C)Oc1ccc(C(=O)c2ccc(Cl)cc2)cc1` [Fenofibrate, p-(4-chlorobenzoyl)-phenoxy isobutyrate isopropyl ester], the Tmax (in general, the time at which the peak concentration occurs) (after oral administration) was 3 to 6 h.
`CC(C)(Oc1ccc(C(=O)c2ccc(Cl)cc2)cc1)C(=O)O` [Fenofibric acid]: the “Tmax (time to peak plasma level)” value (after oral administration of a conventional marketed form such as Lipanthyl tablet or Fenogal capsule) is 3 to 6 h.
With `Nc1nc2ncc(CNc3ccc(C(=O)N[C@@H](CCC(=O)O)C(=O)O)cc3)nc2c(=O)[nH]1` [folic acid], the elimination half-life (in vivo) was 3 h.
